Source: patent publication US10519141B2, “Pyrimidine compound and pharmaceutical use thereof” (HANMI PHARM. CO., LTD., priority 2017, dated 2019)

Legend:
VEGFR2 (KDR) kinase = target: T1, VEGFR2 (KDR) kinase (Homo sapiens, UniProt P35968); assay: Z'-LYTE kinase assay, inhibitory activity for VEGFR2 kinase; type: biochemical; conditions: compound concentration of 100 nM, read-out: Degree of inhibition (%)
T1 construct: purchased Life Technologies
Description: (§1) Inhibitory activity of the exemplary compounds among the foregoing compounds with respect to AXL, CLK2, VEGFR2 (KDR), NUAK1 kinases were measured. Z'-LYTE™ Kinase Assay Kit-Tyr 6 Peptide (Cat. No. PV4122, available from Life Technologies) for AXL, Z'-LYTE™ Kinase Assay Kit-Ser/Thr peptide 6 (Cat. No. PV3179, available from Life Technologies) for CLK2, Z'-LYTE™ Kinase Assay Kit (Cat. No. PV3190, available from Life Technologies) for VEGFR, and Adapta™ Universal Kinase Assay Kit (Cat. No. PV5099, available from Life Technologies) for NUAK1(ARK5) were used. The experiments were carried out by Life Technologies corporation.

AXL kinase = target: T2, AXL kinase (Homo sapiens, UniProt P30530); assay: Z'-LYTE kinase assay, inhibitory activity for AXL kinase; type: biochemical; conditions: compound concentration of 100 nM, read-out: Degree of inhibition (%)
T2 construct: purchased Life Technologies
T2 sequence (P30530 26-894): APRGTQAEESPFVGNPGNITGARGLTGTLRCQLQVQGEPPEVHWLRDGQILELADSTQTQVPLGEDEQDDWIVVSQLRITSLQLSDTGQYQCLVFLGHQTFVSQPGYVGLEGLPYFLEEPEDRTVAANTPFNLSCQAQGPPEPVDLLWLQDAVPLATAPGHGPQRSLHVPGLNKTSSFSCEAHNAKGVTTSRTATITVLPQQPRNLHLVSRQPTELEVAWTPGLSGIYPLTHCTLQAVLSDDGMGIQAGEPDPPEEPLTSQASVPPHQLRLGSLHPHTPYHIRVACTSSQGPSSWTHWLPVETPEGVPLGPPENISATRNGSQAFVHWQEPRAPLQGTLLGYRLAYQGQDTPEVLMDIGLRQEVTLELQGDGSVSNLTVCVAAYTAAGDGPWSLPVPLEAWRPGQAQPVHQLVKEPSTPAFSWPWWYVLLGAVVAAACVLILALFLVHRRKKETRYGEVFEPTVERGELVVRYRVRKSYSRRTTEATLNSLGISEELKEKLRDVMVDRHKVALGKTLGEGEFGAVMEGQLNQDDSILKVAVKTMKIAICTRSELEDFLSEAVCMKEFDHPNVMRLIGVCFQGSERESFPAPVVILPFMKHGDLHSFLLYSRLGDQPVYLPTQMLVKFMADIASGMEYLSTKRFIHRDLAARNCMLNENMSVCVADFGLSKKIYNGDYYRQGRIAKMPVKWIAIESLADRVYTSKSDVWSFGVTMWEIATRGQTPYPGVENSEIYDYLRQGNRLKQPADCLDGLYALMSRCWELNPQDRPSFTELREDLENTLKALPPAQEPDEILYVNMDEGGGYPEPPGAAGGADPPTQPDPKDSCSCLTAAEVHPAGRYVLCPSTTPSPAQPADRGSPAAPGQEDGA
Description: as §1

CLK2 kinase = target: T3, CLK2 kinase (Homo sapiens, UniProt P49760); assay: Z'-LYTE kinase assay, inhibitory activity for CLK2 kinase; type: biochemical; conditions: compound concentration of 100 nM, read-out: Degree of inhibition (%)
T3 construct: purchased Life Technologies
Description: as §1

NUAK1 (ARK5) kinase = target: T4, NUAK1 (ARK5) kinase (Homo sapiens, UniProt O60285); assay: Adapta Universal kinase assay, inhibitory activity for NUAK1 kinase; type: biochemical; conditions: compound concentration of 100 nM, read-out: Degree of inhibition (%)
T4 construct: purchased Life Technologies
T4 sequence (O60285 1-661): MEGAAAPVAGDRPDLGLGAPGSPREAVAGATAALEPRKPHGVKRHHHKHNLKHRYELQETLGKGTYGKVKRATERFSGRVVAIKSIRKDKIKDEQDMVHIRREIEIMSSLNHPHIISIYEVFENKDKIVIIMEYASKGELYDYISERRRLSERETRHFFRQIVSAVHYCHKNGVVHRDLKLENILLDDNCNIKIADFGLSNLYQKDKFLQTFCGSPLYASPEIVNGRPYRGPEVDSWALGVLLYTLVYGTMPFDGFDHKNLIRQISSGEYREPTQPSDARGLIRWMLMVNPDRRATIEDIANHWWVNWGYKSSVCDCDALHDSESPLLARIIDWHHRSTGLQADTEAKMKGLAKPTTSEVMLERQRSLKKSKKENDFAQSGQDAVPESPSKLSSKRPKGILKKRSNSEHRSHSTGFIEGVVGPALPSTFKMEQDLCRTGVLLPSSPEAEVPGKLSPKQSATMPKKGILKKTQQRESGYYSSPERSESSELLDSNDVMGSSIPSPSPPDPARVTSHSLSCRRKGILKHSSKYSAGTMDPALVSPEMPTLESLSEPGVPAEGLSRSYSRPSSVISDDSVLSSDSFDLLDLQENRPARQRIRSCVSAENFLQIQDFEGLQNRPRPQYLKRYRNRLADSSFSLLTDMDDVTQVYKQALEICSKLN
Description: as §1

RS4-11 cell line = assay: Inhibitory activity in cell growth, MTS test, RS4-11; type: cell-based; conditions: Homo sapiens, 72 h, incubation three days
Description: RS4-11 cell line was incubated in an RPMI1640 culture medium (10% fetal bovine serum (FBS)) at a temperature of 37° C. The incubated cell line was prepared in an amount of 2.0×10^4 cells/100 μL, and then plated on 96-well plates. The RPMI1640 medium was serially diluted with the test compounds at a concentration in a range of 10 μM to 0.1 nM at a ratio of 1/10. Subsequently, incubation was performed thereon for three days. An MTS test was performed to measure cell viability, and the 50% growth inhibition (GI50) value of the cell line was calculated using GraphPad Prism software.

MV4-11 cell line = assay: Inhibitory activity in cell growth, MTS test, MV4-11; type: cell-based; conditions: Homo sapiens, 72 h, incubation three days
Description: MV4-11 cell line was incubated in an IMDM medium (10% FBS) at a temperature of 37° C. The incubated cell line was prepared in an amount of 2×10^4 cells/100 μL, and then plated on 96-well plates. The IMDM medium was treated with cascade dilution of the test compounds at a concentration in a range of 1 μM to 0.01 nM at a rate of 1/10. Subsequently, incubation was performed thereon for three days. MTS test was performed to measure cell viability, and the 50% growth inhibition (GI50) value of the cell line was calculated using GraphPad Prism software.

T1 sequence (P35968 20-1356): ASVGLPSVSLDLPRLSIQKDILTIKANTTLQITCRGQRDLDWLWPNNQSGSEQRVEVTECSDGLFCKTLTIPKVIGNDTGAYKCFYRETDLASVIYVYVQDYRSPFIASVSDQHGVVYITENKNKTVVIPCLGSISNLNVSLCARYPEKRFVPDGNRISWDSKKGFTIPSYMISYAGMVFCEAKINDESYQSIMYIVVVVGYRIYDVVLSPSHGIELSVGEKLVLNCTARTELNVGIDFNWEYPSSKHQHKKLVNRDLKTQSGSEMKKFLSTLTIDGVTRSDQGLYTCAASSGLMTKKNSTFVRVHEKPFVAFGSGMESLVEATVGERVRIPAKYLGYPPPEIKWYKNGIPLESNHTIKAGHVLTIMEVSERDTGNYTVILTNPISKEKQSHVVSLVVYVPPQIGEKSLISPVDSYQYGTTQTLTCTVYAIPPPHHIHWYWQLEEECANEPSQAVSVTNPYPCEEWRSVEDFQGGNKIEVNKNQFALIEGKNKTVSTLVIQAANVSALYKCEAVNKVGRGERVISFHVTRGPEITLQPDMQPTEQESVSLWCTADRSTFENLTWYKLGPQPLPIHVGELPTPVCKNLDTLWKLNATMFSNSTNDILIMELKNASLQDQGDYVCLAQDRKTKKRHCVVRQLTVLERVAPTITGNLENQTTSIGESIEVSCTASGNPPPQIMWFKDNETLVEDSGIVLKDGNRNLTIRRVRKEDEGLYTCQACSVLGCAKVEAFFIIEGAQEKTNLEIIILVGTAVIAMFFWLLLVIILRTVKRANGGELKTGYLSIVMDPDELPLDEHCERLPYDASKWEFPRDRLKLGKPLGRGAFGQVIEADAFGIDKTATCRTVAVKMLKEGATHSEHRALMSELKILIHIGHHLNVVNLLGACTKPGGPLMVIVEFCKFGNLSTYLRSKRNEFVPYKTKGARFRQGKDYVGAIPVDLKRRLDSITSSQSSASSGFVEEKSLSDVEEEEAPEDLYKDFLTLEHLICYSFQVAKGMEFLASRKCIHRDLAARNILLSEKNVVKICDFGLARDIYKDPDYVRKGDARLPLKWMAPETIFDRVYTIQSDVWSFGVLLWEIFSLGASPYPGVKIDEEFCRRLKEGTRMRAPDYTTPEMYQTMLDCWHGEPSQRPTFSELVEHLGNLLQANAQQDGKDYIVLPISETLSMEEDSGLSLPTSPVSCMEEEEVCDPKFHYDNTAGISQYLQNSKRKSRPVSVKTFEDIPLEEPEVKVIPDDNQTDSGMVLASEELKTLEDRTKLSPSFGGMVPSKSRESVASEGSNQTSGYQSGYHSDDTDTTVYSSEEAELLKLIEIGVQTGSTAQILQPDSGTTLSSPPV
T3 sequence (P49760 whole entry): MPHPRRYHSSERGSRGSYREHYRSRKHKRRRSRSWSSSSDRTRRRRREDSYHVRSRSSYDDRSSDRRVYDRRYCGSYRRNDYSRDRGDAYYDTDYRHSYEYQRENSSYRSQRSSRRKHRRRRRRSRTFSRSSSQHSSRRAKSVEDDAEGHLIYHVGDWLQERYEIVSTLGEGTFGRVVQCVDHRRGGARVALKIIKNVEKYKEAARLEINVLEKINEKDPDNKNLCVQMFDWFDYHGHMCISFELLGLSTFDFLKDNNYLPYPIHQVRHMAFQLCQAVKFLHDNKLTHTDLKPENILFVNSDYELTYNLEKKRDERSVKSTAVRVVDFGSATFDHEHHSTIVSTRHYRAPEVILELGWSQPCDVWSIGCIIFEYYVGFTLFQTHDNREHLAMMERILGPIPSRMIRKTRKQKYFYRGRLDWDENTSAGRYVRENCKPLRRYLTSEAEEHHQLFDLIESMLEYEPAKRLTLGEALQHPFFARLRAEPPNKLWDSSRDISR

inhibition at 0.1 µM (VEGFR2 (KDR) kinase)	inhibition at 0.1 µM (AXL kinase)	inhibition at 0.1 µM (CLK2 kinase)	inhibition at 0.1 µM (NUAK1 (ARK5) kinase)	GI50 (RS4-11 cell line)	GI50 (MV4-11 cell line)	Structure (SMILES)
67%	66%	93%	72%	–	–	Cc1ccc2c(-c3nc(Nc4cc(C5CC5)cc(N5CCN(C(C)(C)CO)CC5)c4)ncc3Cl)c[nH]c2c1 [Example 17, 2-(4-(3-((5-chloro-4-(6-methyl-1H-indole-3-yl)pyrimidine-2-yl)amino)-5-cyclopropylphenyl)piperazine-1-yl)-2-methylpropane-1-ol]
–	–	–	–	–	1.2 nM	COc1cc(Nc2ncc(Cl)c(-c3c[nH]c4ccccc34)n2)cc(C(=O)N2CCN(CCO)CC2)c1 [Example 50, (3-((5-chloro-4-(1H-indole-3-yl)pyrimidine-2-yl)amino)-5-methoxyphenyl)(4-(2-hydroxyethyl)piperazine-1-yl)methanone]
–	–	–	–	–	0.8 nM	CN(C)C1CCN(c2cccc(Nc3ncc(Cl)c(-c4c[nH]c5ccccc45)n3)c2)C1 (centres unmarked) [Example 30, 5-chloro-N-(3-(3-(dimethylamino)pyrrolidine-1-yl)phenyl)-4-(1H-indole-3-yl)pyrimidine-2-amine]
63%	50%	–	–	–	–	Cc1ccc2c(-c3nc(Nc4cc(CN5CCN(C(C)(C)CO)CC5)cc(C5CC5)c4)ncc3Cl)c[nH]c2c1 [Example 41, 2-(4-(3-((5-chloro-4-(6-methyl-1H-indole-3-yl)pyrimidine-2-yl)amino)-5-cyclopropylbenzyl)piperazine-1-yl)-2-methylpropane-1-ol]
–	–	–	–	–	1.1 nM	Cc1ccc2c(-c3nc(Nc4cc(O[C@@H]5CCN(CCO)C5)cc(C5CC5)c4)ncc3Cl)c[nH]c2c1 [Example 53, (R)-2-(3-(3-((5-chloro-4-(6-methyl-1H-indole-3-yl)pyrimidine-2-yl)amino)-5-cyclopropylphenoxy)pyrrolidine-1-yl)ethane-1-ol]
99%	51%	97%	63%	–	–	CC(C)(CO)N1CCN(Cc2cc(Nc3ncc(Cl)c(-c4c[nH]c5ccccc45)n3)cc(C3CC3)c2)CC1 [Example 38, 2-(4-(3-((5-chloro-4-(1H-indole-3-yl)pyrimidine-2-yl)amino)-5-cyclopropylbenzyl)piperazine-1-yl)-2-methylpropane-1-ol]
–	–	–	–	–	0.8 nM	CCc1cc(Nc2ncc(Cl)c(-c3c[nH]c4cc(C)ccc34)n2)cc(OCCN2CCC(O)CC2)c1 [Example 52]

The next lines start with the molecule.

Structure (SMILES)	inhibition at 0.1 µM (VEGFR2 (KDR) kinase)	inhibition at 0.1 µM (AXL kinase)	inhibition at 0.1 µM (CLK2 kinase)	inhibition at 0.1 µM (NUAK1 (ARK5) kinase)	GI50 (RS4-11 cell line)	GI50 (MV4-11 cell line)
OCCN1CCN(c2cc(Nc3ncc(Cl)c(-c4c[nH]c5cc(F)ccc45)n3)cc(C3CC3)c2)CC1 [Example 1, 2-(4-(3-((5-chloro-4-(6-fluoro-1H-indole-3-yl)pyrimidine-2-yl)amino)-5-cyclopropylphenyl)piperazine-1-yl)ethane-1-ol]	71%	52%	99%	84%	147 nM	–
Cc1ccc2c(-c3nc(Nc4cc(C5CC5)cc(N5CCN(CCO)CC5)c4)ncc3Cl)c[nH]c2c1 [Example 2, 2-(4-(3-((5-chloro-4-(6-methyl-1H-indole-3-yl)pyrimidine-2-yl)amino)-5-cyclopropylphenyl)piperazine-1-yl)ethane-1-ol]	46%	56%	91%	71%	–	–
Cc1ccc2c(-c3nc(Nc4cc(C5CC5)cc(N5CCC(N(C)C)CC5)c4)ncc3Cl)c[nH]c2c1 [Example 6, 5-chloro-N-(3-cyclopropyl-5-(4-(dimethylamino)piperidine-1-yl)phenyl)-4-(6-methyl-1H-indole-3-yl)pyrimidine-2-amine]	62%	49%	66%	57%	–	–
COc1ccc2c(-c3nc(Nc4cc(C5CC5)cc(N5CCN(CCO)CC5)c4)ncc3Cl)c[nH]c2c1 [Example 7, 2-(4-(3-((5-chloro-4-(6-methoxy-1H-indole-3-yl)pyrimidine-2-yl)amino)-5-cyclopropylphenyl)piperazine-1-yl)ethane-1-ol]	–	–	–	–	33 nM	–
Cc1ccc2c(-c3nc(Nc4cc(C5CC5)cc(N5CCC(N(C)C)C5)c4)ncc3Cl)c[nH]c2c1 (centres unmarked) [Example 16, 5-chloro-N-(3-cyclopropyl-5-(3-(dimethylamino)pyrrolidine-1-yl)phenyl)-4-(6-methyl-1H-indole-3-yl)pyrimidine-2-amine]	56%	27%	77%	67%	–	–
